Tested on: 598228-144-R-J1-PDC complex spheroid viability
Assay: Anticancer human tumor 598228-144-R-J1-PDC patient-derived serous endometrial adenocarcinoma cell line growth inhibition [GQUAD]
Conditions: for IC50: curve of first compound; for viability, T/C: stronger effect = lower value
How it was run: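 Tumor cells were grown as complex spheroids with HUVEC endothelial cells and mesenchymal stem cells as stroma. G-quadruplex stabilizers were combined with targeted agents over half-log dilutions from near the clinical Cmax, or from 10 microM.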

[1] = second compound 0.0316 µM, first compound 0.0316 µM
[2] = second compound 0.0316 µM, first compound 0.1 µM
[3] = second compound 0.0316 µM, first compound 0.316 µM
[4] = second compound 0.0316 µM, first compound 1 µM
[5] = second compound 0.0316 µM, first compound 3.16 µM
[6] = second compound 0.0316 µM, first compound 10 µM
[7] = second compound 0.1 µM, first compound 0.0316 µM
[8] = second compound 0.1 µM, first compound 0.1 µM
[9] = second compound 0.1 µM, first compound 0.316 µM
[10] = second compound 0.1 µM, first compound 1 µM
[11] = second compound 0.1 µM, first compound 3.16 µM
[12] = second compound 0.1 µM, first compound 10 µM
[13] = second compound 0.316 µM, first compound 0.0316 µM
[14] = second compound 0.316 µM, first compound 0.1 µM
[15] = second compound 0.316 µM, first compound 0.316 µM
[16] = second compound 0.316 µM, first compound 1 µM
[17] = second compound 0.316 µM, first compound 3.16 µM
[18] = second compound 0.316 µM, first compound 10 µM
[19] = second compound 1 µM, first compound 0.0316 µM
[20] = second compound 1 µM, first compound 0.1 µM
[21] = second compound 1 µM, first compound 0.316 µM
[22] = second compound 1 µM, first compound 1 µM
[23] = second compound 1 µM, first compound 3.16 µM
[24] = second compound 1 µM, first compound 10 µM
[25] = second compound 3.16 µM, first compound 0.0316 µM
[26] = second compound 3.16 µM, first compound 0.1 µM
[27] = second compound 3.16 µM, first compound 0.316 µM
[28] = second compound 3.16 µM, first compound 1 µM
[29] = second compound 3.16 µM, first compound 3.16 µM
[30] = second compound 3.16 µM, first compound 10 µM
[31] = second compound 10 µM, first compound 0.0316 µM
[32] = second compound 10 µM, first compound 0.1 µM
[33] = second compound 10 µM, first compound 0.316 µM
[34] = second compound 10 µM, first compound 1 µM
[35] = second compound 10 µM, first compound 3.16 µM
[36] = second compound 10 µM, first compound 10 µM
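Also: spheroids exposed to the agents for one week before reading.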
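For viability, T/C in this document: percent of vehicle DMSO control viability so 100% = untreated growth.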

SMILES: Cc1cccc(N(C)C(=O)C2C(O)CCN2c2nc(C)cc(C(F)(F)F)c2C#N)c1 (stereo not given) + Cc1[nH]c2ccc(F)cc2c1-c1nc2c3cccnc3c3ncccc3c2[nH]1
- IC50 (second compound 0.0316 µM): > 10 µM
- IC50 (second compound 0.1 µM): > 10 µM
- IC50 (second compound 0.316 µM): > 10 µM
- IC50 (second compound 1 µM): > 10 µM
- IC50 (second compound 3.16 µM): < 0.0316 µM
- IC50 (second compound 10 µM): > 10 µM
- viability, T/C [1]: 114%
- viability, T/C [2]: 113%
- viability, T/C [3]: 112%
- viability, T/C [4]: 82%
- viability, T/C [5]: 104%
- viability, T/C [6]: 100%
- viability, T/C [7]: 110%
- viability, T/C [8]: 112%
- viability, T/C [9]: 98%
- viability, T/C [10]: 94.1%
- viability, T/C [11]: 104%
- viability, T/C [12]: 81.7%
- viability, T/C [13]: 99.8%
- viability, T/C [14]: 90.3%
- viability, T/C [15]: 80.9%
- viability, T/C [16]: 79.2%
- viability, T/C [17]: 83.9%
- viability, T/C [18]: 92.7%
- viability, T/C [19]: 58.6%
- viability, T/C [20]: 52.7%
- viability, T/C [21]: 56.2%
- viability, T/C [22]: 45%
- viability, T/C [23]: 71.1%
- viability, T/C [24]: 57.7%
- viability, T/C [25]: 40.8%
- viability, T/C [26]: 45.4%
- viability, T/C [27]: 52.6%
- viability, T/C [28]: 34.9%
- viability, T/C [29]: 39.5%
- viability, T/C [30]: 36.1%
- viability, T/C [31]: 68.4%
- viability, T/C [32]: 44.8%
- viability, T/C [33]: 53.5%
- viability, T/C [34]: 67.3%
- viability, T/C [35]: 58%
- viability, T/C [36]: 61.6%

SMILES: CC(C)n1c(=O)n(C)c2cnc3cc(F)c(-c4ccc(OCCCN5CCCCC5)nc4)cc3c21 + CN(C)c1ccc(Nc2c3ccc(NC(=O)CCN4CCCC4)cc3nc3cc(NC(=O)CCN4CCCC4)ccc23)cc1
- IC50 (second compound 0.0316 µM): 9.92 µM
- IC50 (second compound 0.1 µM): > 10 µM
- IC50 (second compound 0.316 µM): > 10 µM
- IC50 (second compound 1 µM): 8.29 µM
- IC50 (second compound 3.16 µM): 6.87 µM
- IC50 (second compound 10 µM): 0.217 µM
- viability, T/C [1]: 112%
- viability, T/C [2]: 79.6%
- viability, T/C [3]: 102%
- viability, T/C [4]: 93%
- viability, T/C [5]: 78.1%
- viability, T/C [6]: 49.7%
- viability, T/C [7]: 117%
- viability, T/C [8]: 82.9%
- viability, T/C [9]: 94%
- viability, T/C [10]: 92.2%
- viability, T/C [11]: 86.8%
- viability, T/C [12]: 57.2%
- viability, T/C [13]: 110%
- viability, T/C [14]: 102%
- viability, T/C [15]: 98.9%
- viability, T/C [16]: 89.3%
- viability, T/C [17]: 89.5%
- viability, T/C [18]: 60%
- viability, T/C [19]: 75.7%
- viability, T/C [20]: 87.4%
- viability, T/C [21]: 99.2%
- viability, T/C [22]: 87.7%
- viability, T/C [23]: 83.1%
- viability, T/C [24]: 43.5%
- viability, T/C [25]: 98.2%
- viability, T/C [26]: 78.3%
- viability, T/C [27]: 103%
- viability, T/C [28]: 80.2%
- viability, T/C [29]: 83.3%
- viability, T/C [30]: 34.7%
- viability, T/C [31]: 70.8%
- viability, T/C [32]: 60.3%
- viability, T/C [33]: 44.7%
- viability, T/C [34]: 29.6%
- viability, T/C [35]: 15.8%
- viability, T/C [36]: 5.05%

SMILES: COc1cc(C2c3cc4c(cc3C(OC3OC5COC(C)OC5C(O)C3O)C3COC(=O)C23)OCO4)cc(OC)c1O (stereo not given) + CN(C)c1ccc(Nc2c3ccc(NC(=O)CCN4CCCC4)cc3nc3cc(NC(=O)CCN4CCCC4)ccc23)cc1
- IC50 (second compound 0.0316 µM): 8.17 µM
- IC50 (second compound 0.1 µM): 5.14 µM
- IC50 (second compound 0.316 µM): 5.39 µM
- IC50 (second compound 1 µM): 0.898 µM
- IC50 (second compound 3.16 µM): 5.14 µM
- IC50 (second compound 10 µM): 0.471 µM
- viability, T/C [1]: 114%
- viability, T/C [2]: 105%
- viability, T/C [3]: 75.5%
- viability, T/C [4]: 65.5%
- viability, T/C [5]: 71.5%
- viability, T/C [6]: 42.1%
- viability, T/C [7]: 102%
- viability, T/C [8]: 84.2%
- viability, T/C [9]: 78.6%
- viability, T/C [10]: 61.3%
- viability, T/C [11]: 61.5%
- viability, T/C [12]: 40.3%
- viability, T/C [13]: 103%
- viability, T/C [14]: 95%
- viability, T/C [15]: 70.8%
- viability, T/C [16]: 61.6%
- viability, T/C [17]: 65.4%
- viability, T/C [18]: 39.6%
- viability, T/C [19]: 93.6%
- viability, T/C [20]: 114%
- viability, T/C [21]: 71.3%
- viability, T/C [22]: 55.9%
- viability, T/C [23]: 54.9%
- viability, T/C [24]: 32.5%
- viability, T/C [25]: 95%
- viability, T/C [26]: 75.6%
- viability, T/C [27]: 80%
- viability, T/C [28]: 56.4%
- viability, T/C [29]: 70.3%
- viability, T/C [30]: 35.7%
- viability, T/C [31]: 92.9%
- viability, T/C [32]: 71.8%
- viability, T/C [33]: 53%
- viability, T/C [34]: 40.7%
- viability, T/C [35]: 60.3%
- viability, T/C [36]: 34.9%

SMILES: O=c1[nH]cc(F)c(=O)[nH]1 + Cc1cnc(CNC(=O)c2c(=O)c3ccc(N4CCCN(C)CC4)nc3n3c2sc2ccccc23)cn1
- IC50 (second compound 0.0316 µM): > 10 µM
- IC50 (second compound 0.1 µM): > 10 µM
- IC50 (second compound 0.316 µM): > 10 µM
- IC50 (second compound 1 µM): > 10 µM
- IC50 (second compound 3.16 µM): > 10 µM
- IC50 (second compound 10 µM): < 0.0316 µM
- viability, T/C [1]: 101%
- viability, T/C [2]: 98.9%
- viability, T/C [3]: 85.3%
- viability, T/C [4]: 85.7%
- viability, T/C [5]: 89%
- viability, T/C [6]: 76%
- viability, T/C [7]: 69.2%
- viability, T/C [8]: 80.3%
- viability, T/C [9]: 69.9%
- viability, T/C [10]: 65.1%
- viability, T/C [11]: 97.9%
- viability, T/C [12]: 64.1%
- viability, T/C [13]: 69.7%
- viability, T/C [14]: 77.8%
- viability, T/C [15]: 72.4%
- viability, T/C [16]: 66.3%
- viability, T/C [17]: 65.1%
- viability, T/C [18]: 55.5%
- viability, T/C [19]: 61.2%
- viability, T/C [20]: 54.3%
- viability, T/C [21]: 63.5%
- viability, T/C [22]: 68.4%
- viability, T/C [23]: 73.8%
- viability, T/C [24]: 60.3%
- viability, T/C [25]: 56.1%
- viability, T/C [26]: 59.2%
- viability, T/C [27]: 56%
- viability, T/C [28]: 46.1%
- viability, T/C [29]: 67.9%
- viability, T/C [30]: 52.2%
- viability, T/C [31]: 44.5%
- viability, T/C [32]: 49.6%
- viability, T/C [33]: 48.3%
- viability, T/C [34]: 53.1%
- viability, T/C [35]: 59.8%
- viability, T/C [36]: 51.9%

SMILES: CC(=O)O[C@H]1C(=O)[C@@]2(C)[C@H]([C@H](OC(=O)c3ccccc3)[C@]3(O)C[C@H](OC(=O)[C@H](O)[C@@H](NC(=O)c4ccccc4)c4ccccc4)C(C)=C1C3(C)C)[C@]1(OC(C)=O)CO[C@@H]1C[C@@H]2O + Cc1[nH]c2ccc(F)cc2c1-c1nc2c3cccnc3c3ncccc3c2[nH]1
- IC50 (second compound 0.0316 µM): 0.141 µM
- IC50 (second compound 0.1 µM): 0.051 µM
- IC50 (second compound 0.316 µM): 4.36 µM
- IC50 (second compound 1 µM): < 0.0316 µM
- IC50 (second compound 3.16 µM): < 0.0316 µM
- IC50 (second compound 10 µM): < 0.0316 µM
- viability, T/C [1]: 56.2%
- viability, T/C [2]: 46.4%
- viability, T/C [3]: 48.4%
- viability, T/C [4]: 43.9%
- viability, T/C [5]: 50.9%
- viability, T/C [6]: 39.8%
- viability, T/C [7]: 55.1%
- viability, T/C [8]: 42.1%
- viability, T/C [9]: 52.2%
- viability, T/C [10]: 41.7%
- viability, T/C [11]: 40.6%
- viability, T/C [12]: 45.6%
- viability, T/C [13]: 63.6%
- viability, T/C [14]: 59.6%
- viability, T/C [15]: 52.5%
- viability, T/C [16]: 53.3%
- viability, T/C [17]: 50.1%
- viability, T/C [18]: 49.1%
- viability, T/C [19]: 49.8%
- viability, T/C [20]: 42.9%
- viability, T/C [21]: 50.1%
- viability, T/C [22]: 39%
- viability, T/C [23]: 37.5%
- viability, T/C [24]: 40.1%
- viability, T/C [25]: 45.2%
- viability, T/C [26]: 33.6%
- viability, T/C [27]: 37.5%
- viability, T/C [28]: 39.3%
- viability, T/C [29]: 34.9%
- viability, T/C [30]: 38.4%
- viability, T/C [31]: 40.3%
- viability, T/C [32]: 46.3%
- viability, T/C [33]: 41.7%
- viability, T/C [34]: 49.5%
- viability, T/C [35]: 48.3%
- viability, T/C [36]: 39.6%

— PubChem BioAssay AID2060506 (Molecular Pharmacology Branch, DTP, NCI, 2025)
